# Data published in patent US20240058347A1, “DOSAGES FOR HDAC TREATMENT WITH REDUCED SIDE EFFECTS” (VIRACTA THERAPEUTICS, INC., priority 2019, published 2024).
# Experiments:
# [1] = 30 mg twice weekly; cited from earlier work
# HDAC4 = HDAC4 (Homo sapiens, UniProt P56524); experiment: in vitro HDAC inhibition assay (fluorescence), HDAC4; assay type: biochemical; conditions: read-out: Percentage Inhibition
# Description: (§1) Briefly, all of the compounds are dissolved in DMSO. A series of dilutions of the compounds were prepared with 10% DMSO in HDAC assay buffer and 5 μl of the dilution was added to a 50 μl reaction so that the final concentration of DMSO is 1% in all of reactions. The compounds were pre-incubated in duplicate at RT for 1 hour in a mixture containing HDAC assay buffer, 5 μg BSA, HDAC enzyme (see Table 7) and a the particular HDACi. After 1 hour, the enzymatic reactions were initiated by the addition of HDAC substrate (BPS Bioscience) to a final concentration of 10 μM or 2 μM. The enzymatic reaction proceeded for 30 minutes at 37° C.
# (§2) HDAC activity assays were performed in duplicates at each concentration. The fluorescent intensity data were analyzed using the computer software, Graphpad Prism. In the absence of the compound, the fluorescent intensity (Ft) in each data set was defined as 100% activity. In the absence of HDAC, the fluorescent intensity (Fb) in each data set was defined as 0% activity. The percent activity in the presence of each compound was calculated according to the following equation: % activity=(F−Fb)/(Ft−Fb), where F=the fluorescent intensity in the presence of the compound. […]
# HDAC9 = HDAC9 (Homo sapiens, UniProt Q9UKV0); experiment: in vitro HDAC inhibition assay (fluorescence), HDAC9; assay type: biochemical; conditions: read-out: Percentage Inhibition
# Description: as §1, §2
# HDAC7 = molecular target: T1, HDAC7 (Homo sapiens, UniProt Q8WUI4); experiment: in vitro HDAC inhibition assay (fluorescence), HDAC7; assay type: biochemical; conditions: read-out: Percentage Inhibition
# T1 sequence (Q8WUI4 1-952): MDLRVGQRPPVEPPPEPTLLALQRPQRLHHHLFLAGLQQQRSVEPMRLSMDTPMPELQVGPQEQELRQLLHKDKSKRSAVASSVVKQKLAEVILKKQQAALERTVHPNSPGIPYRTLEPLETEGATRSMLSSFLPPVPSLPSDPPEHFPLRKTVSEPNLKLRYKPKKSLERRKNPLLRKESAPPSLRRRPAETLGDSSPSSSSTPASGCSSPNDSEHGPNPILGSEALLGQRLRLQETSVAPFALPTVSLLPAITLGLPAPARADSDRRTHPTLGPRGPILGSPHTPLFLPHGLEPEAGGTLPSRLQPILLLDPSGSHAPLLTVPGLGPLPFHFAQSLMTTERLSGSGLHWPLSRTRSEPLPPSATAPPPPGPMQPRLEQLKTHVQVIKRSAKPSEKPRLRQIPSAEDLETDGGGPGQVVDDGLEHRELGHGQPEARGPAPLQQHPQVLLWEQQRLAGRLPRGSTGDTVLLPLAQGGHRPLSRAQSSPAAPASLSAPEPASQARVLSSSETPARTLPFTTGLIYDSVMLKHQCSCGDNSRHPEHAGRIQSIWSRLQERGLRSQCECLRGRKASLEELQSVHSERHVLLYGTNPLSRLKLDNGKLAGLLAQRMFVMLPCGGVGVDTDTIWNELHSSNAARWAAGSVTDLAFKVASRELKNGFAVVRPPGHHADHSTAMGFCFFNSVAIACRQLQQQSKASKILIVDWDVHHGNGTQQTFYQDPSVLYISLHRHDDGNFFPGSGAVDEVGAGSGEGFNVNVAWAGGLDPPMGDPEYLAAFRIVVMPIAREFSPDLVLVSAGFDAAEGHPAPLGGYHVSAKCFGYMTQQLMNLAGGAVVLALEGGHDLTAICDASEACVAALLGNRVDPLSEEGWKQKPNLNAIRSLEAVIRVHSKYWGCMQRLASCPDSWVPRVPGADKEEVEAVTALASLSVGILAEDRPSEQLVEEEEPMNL
# Description: as §1, §2
# HDAC11 = molecular target: T2, HDAC11 (Homo sapiens, UniProt Q96DB2); experiment: in vitro HDAC inhibition assay (fluorescence), HDAC11; assay type: biochemical; conditions: read-out: Percentage Inhibition
# T2 sequence (Q96DB2 1-347): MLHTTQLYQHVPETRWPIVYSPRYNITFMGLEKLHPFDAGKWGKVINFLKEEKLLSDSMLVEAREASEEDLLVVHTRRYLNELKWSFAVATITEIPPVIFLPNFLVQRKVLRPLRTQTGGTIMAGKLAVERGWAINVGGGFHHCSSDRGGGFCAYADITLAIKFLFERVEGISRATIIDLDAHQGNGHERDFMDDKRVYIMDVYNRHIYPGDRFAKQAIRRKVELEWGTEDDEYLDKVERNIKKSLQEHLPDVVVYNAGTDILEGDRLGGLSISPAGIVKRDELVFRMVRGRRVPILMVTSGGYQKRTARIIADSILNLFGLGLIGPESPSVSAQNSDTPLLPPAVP
# Description: as §1, §2
# [2] = in vivo; cited from earlier work
# [3] = 1,000 mg/m^2 IV once daily on days 1 to 5 of a 21-day cycle; cited from earlier work
# HDAC9, sequence (Q9UKV0 whole entry): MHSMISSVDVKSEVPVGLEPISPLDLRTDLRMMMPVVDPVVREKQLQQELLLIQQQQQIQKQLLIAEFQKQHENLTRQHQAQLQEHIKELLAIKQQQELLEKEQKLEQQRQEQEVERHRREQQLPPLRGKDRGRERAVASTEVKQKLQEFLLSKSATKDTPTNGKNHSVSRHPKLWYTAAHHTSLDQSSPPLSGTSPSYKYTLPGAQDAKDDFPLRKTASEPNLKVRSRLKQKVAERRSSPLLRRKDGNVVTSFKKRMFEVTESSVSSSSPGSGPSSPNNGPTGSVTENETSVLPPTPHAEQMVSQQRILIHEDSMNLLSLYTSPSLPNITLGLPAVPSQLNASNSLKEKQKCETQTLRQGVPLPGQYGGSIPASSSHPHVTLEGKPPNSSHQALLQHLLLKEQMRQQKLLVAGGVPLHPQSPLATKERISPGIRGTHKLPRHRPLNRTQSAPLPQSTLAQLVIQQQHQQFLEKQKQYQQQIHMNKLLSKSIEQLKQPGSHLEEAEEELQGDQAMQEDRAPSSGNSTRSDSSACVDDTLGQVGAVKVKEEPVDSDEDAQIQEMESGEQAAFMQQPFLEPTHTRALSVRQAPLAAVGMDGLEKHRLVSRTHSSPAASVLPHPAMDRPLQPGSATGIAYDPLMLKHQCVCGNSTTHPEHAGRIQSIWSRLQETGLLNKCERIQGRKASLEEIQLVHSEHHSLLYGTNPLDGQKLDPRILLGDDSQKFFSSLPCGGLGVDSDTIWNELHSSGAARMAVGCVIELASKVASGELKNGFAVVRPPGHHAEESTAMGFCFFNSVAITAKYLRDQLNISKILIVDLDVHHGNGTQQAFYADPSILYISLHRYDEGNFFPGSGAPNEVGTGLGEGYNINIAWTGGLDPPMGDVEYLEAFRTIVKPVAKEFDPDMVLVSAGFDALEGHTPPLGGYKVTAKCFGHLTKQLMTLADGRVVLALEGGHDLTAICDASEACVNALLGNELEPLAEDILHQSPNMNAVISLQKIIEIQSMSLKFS
# HDAC4, sequence (P56524 whole entry): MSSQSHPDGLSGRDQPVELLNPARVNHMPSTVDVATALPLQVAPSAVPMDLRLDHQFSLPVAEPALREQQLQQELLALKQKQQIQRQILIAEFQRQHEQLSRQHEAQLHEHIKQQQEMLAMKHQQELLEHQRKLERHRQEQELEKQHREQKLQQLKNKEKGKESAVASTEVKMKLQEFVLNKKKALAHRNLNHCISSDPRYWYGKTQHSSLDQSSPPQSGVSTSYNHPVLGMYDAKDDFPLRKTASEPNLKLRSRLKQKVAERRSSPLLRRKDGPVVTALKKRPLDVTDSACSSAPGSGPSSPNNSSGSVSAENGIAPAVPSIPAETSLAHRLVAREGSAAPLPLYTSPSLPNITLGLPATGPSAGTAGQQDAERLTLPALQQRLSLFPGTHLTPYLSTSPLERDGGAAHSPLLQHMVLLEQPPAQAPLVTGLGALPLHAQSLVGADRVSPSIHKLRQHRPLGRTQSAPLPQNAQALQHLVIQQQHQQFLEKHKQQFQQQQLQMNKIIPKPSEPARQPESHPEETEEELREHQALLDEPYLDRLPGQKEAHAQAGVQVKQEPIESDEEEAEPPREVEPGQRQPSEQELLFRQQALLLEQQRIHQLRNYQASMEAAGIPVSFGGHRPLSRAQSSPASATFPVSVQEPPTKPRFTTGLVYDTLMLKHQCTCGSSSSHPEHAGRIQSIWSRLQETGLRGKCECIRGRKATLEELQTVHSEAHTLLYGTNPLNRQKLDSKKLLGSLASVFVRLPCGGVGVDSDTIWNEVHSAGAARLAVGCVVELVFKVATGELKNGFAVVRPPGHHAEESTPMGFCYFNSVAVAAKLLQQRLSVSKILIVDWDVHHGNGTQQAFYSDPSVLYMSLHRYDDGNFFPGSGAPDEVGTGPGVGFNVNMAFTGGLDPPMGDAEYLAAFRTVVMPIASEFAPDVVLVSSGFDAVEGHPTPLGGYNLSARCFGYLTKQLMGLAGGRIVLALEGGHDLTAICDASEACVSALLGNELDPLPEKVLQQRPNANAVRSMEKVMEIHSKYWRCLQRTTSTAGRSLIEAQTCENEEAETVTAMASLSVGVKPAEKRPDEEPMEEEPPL
smiles,measurement,setting,value
"Nc1cc(F)ccc1NC(=O)c1ccc(CNC(=O)/C=C/c2cccnc2)cc1 [Chidamide, chidamide]",SAE rate,[1],5%
"C/C=C1\NC(=O)[C@H]2CSSCC/C=C/[C@H](CC(=O)N[C@H](C(C)C)C(=O)N2)OC(=O)[C@H](C(C)C)NC1=O [FK228, romidepsin, reference compound]",inhibition at 100 µM,HDAC4,< 17%
same,inhibition at 100 µM,HDAC9,< 17%
same,inhibition at 100 µM,HDAC7,< 17%
same,inhibition at 100 µM,HDAC11,< 17%
"Nc1ccccc1NC(=O)c1ccc(CNC(=O)OCc2cccnc2)cc1 [MS-275, entinostat]",elimination half-life,[2],approximately 36 hours
O=C(/C=C/c1cccc(S(=O)(=O)Nc2ccccc2)c1)NO [belinostat],Grade 3 or 4 adverse effect rate,[3],47%
